Laboratory results from patent US12377106B2, “Piperidinylpyrazine-carboxamide compounds for treating and preventing cancer and for degrading BTK” (NURIX THERAPEUTICS, INC., priority 2021, dated 2025).
“Also recorded” adds a separate entry of the source.

What was measured:
[1] = tested on: patient with non-GCB (ABC subtype) DLBCL; assay: Response of a patient with non-GCB (ABC subtype) DLBCL (Lugano criteria, FDG-PET CT scan); type: in vivo, human; conditions: 300 mg
Experimental: A heavily pre-treated patient with non-GCB (ABC subtype) DLBCL was enrolled in Compound 149 phase 1 dose-escalation. The patient was treated at a single dosage level of Compound 149: […] (300 mg) for a period of 5 months and ongoing. The objective of the study was to assess safety and tolerability, to identify maximum tolerated dose, and to evaluate PK/PD.
(§1) The patient's response was checked at 8 weeks and 16 weeks. […] Gradual BTK degradation was observed until day 8 day of receiving the 300 mg dose of Compound 149, wherein the maximum BTK degradation was achieved on the 8th day. Consistent with its design, Compound 149 also degraded Ikaros and Aiolos which is responsible for the compound's immunomodulatory activity. […] In the 16-week assessment image, maximum standard uptake value (Max SUV) reduced from 17.6 at screening to 2.5 at the 16-week assessment time with the Deauville five-point scale (5PS; Barrington et al., 2010, Eur J Nucl Med Mol Imaging 37 (10): 1824-33) reducing from 5 to 2.

patients with CLL = assay: Efficacy evaluations in CLL patients; type: in vivo, human
Experimental: (§2) Patients were treated at four different dosage levels of Compound 149: dose level 1 (100 mg), dose level 2 (200 mg), dose level 3 (300 mg), and dose level 4 (400 mg). The objective of the study was to assess safety and tolerability, to identify maximum tolerated dose, and to evaluate PK/PD.
Patients evaluated in this study were treated for diseases or disorders selected from the group consisting of: chronic lymphocytic leukemia (CLL) with BTK C481 mutation (n 20); CLL without BTK C481 mutation (n˜20); mantle cell lymphoma (MCL), marginal zone lymphoma (MZL), Waldenstrom's macroglobulinemia (WM) (n˜20); follicular lymphoma (FL) (n˜20); and diffuse large B cell lymphoma (DLBCL) (n˜20). Heavily pretreated patient population, including double-refractory CLL patients.
Data shown in FIG. 6 confirms that Compound 149 is a potent BTK degrader to solve inhibitor resistance observed with prior therapy.

Aiolos = biological target: T1, Aiolos (Homo sapiens, UniProt Q96SW2+Q9UKT9); assay: Aiolos degradation in the patient; type: in vivo; conditions: DLBCL patient, 300 mg
T1 construct: Compound 149 also degraded Ikaros and Aiolos; endogenous in cells
T1 sequence (Q9UKT9 whole entry): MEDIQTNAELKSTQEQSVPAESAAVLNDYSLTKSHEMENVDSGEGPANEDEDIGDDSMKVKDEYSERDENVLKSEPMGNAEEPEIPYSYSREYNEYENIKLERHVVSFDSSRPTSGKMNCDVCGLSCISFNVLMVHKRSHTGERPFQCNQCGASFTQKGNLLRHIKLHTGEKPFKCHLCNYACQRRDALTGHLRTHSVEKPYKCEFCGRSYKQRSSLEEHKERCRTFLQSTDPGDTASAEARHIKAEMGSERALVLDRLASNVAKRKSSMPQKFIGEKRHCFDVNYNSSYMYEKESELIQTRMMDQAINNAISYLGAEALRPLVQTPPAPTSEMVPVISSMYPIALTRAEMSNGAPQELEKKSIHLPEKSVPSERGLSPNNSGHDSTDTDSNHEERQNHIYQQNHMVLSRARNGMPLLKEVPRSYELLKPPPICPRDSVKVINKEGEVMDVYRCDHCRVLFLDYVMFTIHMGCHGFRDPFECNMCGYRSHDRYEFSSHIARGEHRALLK
T1 sequence (Q96SW2 whole entry): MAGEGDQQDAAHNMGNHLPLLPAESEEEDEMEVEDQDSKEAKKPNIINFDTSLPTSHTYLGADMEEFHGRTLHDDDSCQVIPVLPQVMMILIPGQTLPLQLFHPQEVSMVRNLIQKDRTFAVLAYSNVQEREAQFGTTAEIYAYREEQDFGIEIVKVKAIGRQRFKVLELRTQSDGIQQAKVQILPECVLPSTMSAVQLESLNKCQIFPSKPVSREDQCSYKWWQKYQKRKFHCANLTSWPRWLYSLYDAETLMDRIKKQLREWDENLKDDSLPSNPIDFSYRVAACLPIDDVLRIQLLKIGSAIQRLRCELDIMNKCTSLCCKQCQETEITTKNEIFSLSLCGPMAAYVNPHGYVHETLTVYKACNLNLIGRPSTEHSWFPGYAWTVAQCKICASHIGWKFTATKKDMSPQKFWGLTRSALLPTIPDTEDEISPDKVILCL
T1 sequence (Q16531 whole entry partner): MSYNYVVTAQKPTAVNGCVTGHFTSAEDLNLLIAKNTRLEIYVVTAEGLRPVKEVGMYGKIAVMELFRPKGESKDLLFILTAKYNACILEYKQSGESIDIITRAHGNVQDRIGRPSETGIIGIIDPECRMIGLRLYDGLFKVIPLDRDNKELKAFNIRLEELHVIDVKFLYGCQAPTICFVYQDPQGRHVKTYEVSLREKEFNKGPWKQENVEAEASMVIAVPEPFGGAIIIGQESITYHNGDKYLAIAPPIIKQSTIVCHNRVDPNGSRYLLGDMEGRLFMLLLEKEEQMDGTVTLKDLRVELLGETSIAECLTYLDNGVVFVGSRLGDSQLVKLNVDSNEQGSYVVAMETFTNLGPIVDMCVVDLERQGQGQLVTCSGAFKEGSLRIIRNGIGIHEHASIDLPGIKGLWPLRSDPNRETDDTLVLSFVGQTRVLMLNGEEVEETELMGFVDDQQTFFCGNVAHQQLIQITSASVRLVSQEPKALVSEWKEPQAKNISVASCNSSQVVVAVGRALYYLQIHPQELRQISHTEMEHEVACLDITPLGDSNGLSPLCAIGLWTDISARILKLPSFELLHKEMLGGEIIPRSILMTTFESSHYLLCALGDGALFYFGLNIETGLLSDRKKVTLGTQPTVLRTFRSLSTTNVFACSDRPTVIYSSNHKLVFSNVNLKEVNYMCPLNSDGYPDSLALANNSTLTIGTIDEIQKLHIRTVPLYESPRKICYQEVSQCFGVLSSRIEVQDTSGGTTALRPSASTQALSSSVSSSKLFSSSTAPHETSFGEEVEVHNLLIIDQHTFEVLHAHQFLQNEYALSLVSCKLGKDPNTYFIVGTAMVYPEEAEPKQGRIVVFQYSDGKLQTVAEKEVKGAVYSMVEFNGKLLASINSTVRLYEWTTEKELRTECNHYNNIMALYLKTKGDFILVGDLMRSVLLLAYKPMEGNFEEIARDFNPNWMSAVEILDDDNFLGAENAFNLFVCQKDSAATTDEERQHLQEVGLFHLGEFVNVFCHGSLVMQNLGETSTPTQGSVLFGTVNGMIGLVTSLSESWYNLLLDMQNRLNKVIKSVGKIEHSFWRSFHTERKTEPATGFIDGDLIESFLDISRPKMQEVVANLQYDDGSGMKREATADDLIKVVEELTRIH
Experimental: as §1

[2] = Safety and tolerability in patients with relapsed and refractory B cell malignancies; type: in vivo; conditions: for Anemia, Grade ≥ 3 / Clostridium difficile colitis, Grade ≥ 3 / Clostridium difficile infection, Grade ≥ 3 / Cognitive disorder, Grade ≥ 3 / Dyspnea, Grade ≥ 3 / Hypertension, Grade ≥ 3 / Neutropenia, Grade ≥ 3 / Pain in extremity, Grade ≥ 3 / Upper resp. tract infection, Grade ≥ 3: all patients
Experimental: Compound 149 was administered to human patients in a Phase 1a/lb trial investigating safety and tolerability in relapsed and refractory B cell malignancies. Compound 149 was administered as a once daily oral dose first in an accelerated Phase 1a dose escalation starting at 100 mg on Day 1. The first dose levels are explored in a single patient cohort until a grade 2 adverse event has been observed. Thereafter, a traditional 3+3 escalation design is used. This 100 mg starting dose was predicted to provide similar exposure as that observed in non-human primate studies. Once a dose is selected based on all safety, efficacy, pharmacokinetic, and pharmacodynamic data available, the trial will expand in up to five expansion cohorts.
as §2
Safety population included 19 subjects, and data is summarize in Table 6 below. Two subjects were assigned to the 100 mg cohort but treatment was not entered in the electronic data capture (EDC) at time of extract.

[3] = tested on: lymphoma cells harboring BTK-C481S mutation; assay: Killing of lymphoma cells harboring BTK-C481S mutation (FIG. 6); type: cell-based

## NC(=O)c1ncc(N2CCCCC2)nc1Nc1ccc(C2CCN(C[C@@H]3CCN(c4ccc5c(c4)C(=O)N(C4CCC(=O)NC4=O)C5=O)C3)CC2)cc1 (stereo partly shown) [Compound 149]
[1]; DLBCL patient, 16-week assessment, 5 at screening
  Deauville five-point scale (5PS): 2
[1]; DLBCL patient, 16-week assessment, 17.6 at screening
  maximum standard uptake value (Max SUV): 2.5
[1]; heavily pre-treated non-GCB (ABC subtype) DLBCL patient
  response per Lugano criteria at 8 weeks: complete response
[1]; non-GCB (ABC subtype) DLBCL patient, FIG. 9
  response at the 16-week assessment (FDG-PET CT Scan Disease Assessment): complete confirmed response
Patients with CLL; CLL patients with prior therapy (median of six prior treatments), 100 mg, FIG. 4
  clinical activity / benefit in CLL patients: durable benefit; also recorded: showed clinical activity
Patients with CLL; all evaluable CLL patients, FIG. 5
  nodal reductions and/or lymphocytosis: nodal reductions and/or lymphocytosis observed in all patients treated
Patients with CLL; evaluable CLL patients, FIG. 5
  responses in BTK inhibitor-resistant CLL patients: responses in patients with resistance mutations to covalent and non-covalent BTK inhibitors
Aiolos
  Aiolos degradation: degraded
[2]; 100 mg (N = 10)
  Anemia, Grade ≥ 3: 1 (10%) n (%)
  Clostridium difficile colitis, Grade ≥ 3: 0 (0%) n (%)
  Clostridium difficile infection, Grade ≥ 3: 0 (0%) n (%)
  Cognitive disorder, Grade ≥ 3: 0 (0%) n (%)
  Dyspnea, Grade ≥ 3: 0 (0%) n (%)
  Hypertension, Grade ≥ 3: 0 (0%) n (%)
  Neutropenia, Grade ≥ 3: 1 (10%) n (%)
  Pain in extremity, Grade ≥ 3: 0 (0%) n (%)
  Upper resp. tract infection, Grade ≥ 3: 0 (0%) n (%)
[2]; 200 mg (N = 6)
  Anemia, Grade ≥ 3: 1 (16.7%) n (%)
  Clostridium difficile colitis, Grade ≥ 3: 1 (16.7%) n (%)
  Clostridium difficile infection, Grade ≥ 3: 1 (16.7%) n (%)
  Cognitive disorder, Grade ≥ 3: 0 (0%) n (%)
  Dyspnea, Grade ≥ 3: 1 (16.7%) n (%)
  Hypertension, Grade ≥ 3: 1 (16.7%) n (%)
  Neutropenia, Grade ≥ 3: 3 (50%) n (%)
  Pain in extremity, Grade ≥ 3: 0 (0%) n (%)
  Upper resp. tract infection, Grade ≥ 3: 1 (16.7%) n (%)
[2]; 300 mg (N = 3)
  Anemia, Grade ≥ 3: 0 (0%) n (%)
  Clostridium difficile colitis, Grade ≥ 3: 0 (0%) n (%)
  Clostridium difficile infection, Grade ≥ 3: 0 (0%) n (%)
  Cognitive disorder, Grade ≥ 3: 1 (33.3%) n (%)
  Dyspnea, Grade ≥ 3: 0 (0%) n (%)
  Hypertension, Grade ≥ 3: 0 (0%) n (%)
  Neutropenia, Grade ≥ 3: 2 (66.7%) n (%)
  Pain in extremity, Grade ≥ 3: 1 (33.3%) n (%)
  Upper resp. tract infection, Grade ≥ 3: 0 (0%) n (%)
[2]; 300 mg, a CLL patient, cognitive AE believed related to immunomodulatory activity
  dose limiting toxicity: Dose limiting toxicity was observed
[2]; DLBCL patient, 300 mg, 5 months and ongoing
  dose limiting toxicity (DLT) or serious adverse event (SAE): no dose limiting toxicity (DLT) or serious adverse event (SAE) was observed
[2]; at 100 mg in a patient with MCL and at 200 mg in a patient with CLL
  atrial fibrillation adverse events: Two AEs of lower grade atrial fibrillation were observed
[2]; humans, 100 mg and 200 mg per dose
  tolerability / dose limiting toxicities: well-tolerated with no dose limiting toxicities
[3]
  killing of lymphoma cells: kills lymphoma cells harboring BTK-C481S mutation
